Test system: Plasmodium berghei
Assay: Luciferase/luciferin-expressing antifolate-resistant parasites were used to infect a culture of HepG2 cells that were pre-incubated with compounds. Infected hepatocytes emit light due to the luciferase reaction. Assay results are presented as the percent inhibition of light emission compared to control. […]
Format: functional
Conditions: sporozoite; for IC90: read-out: LUCIFERASE INFECTION ASSAY - IC90
[1] = read-out: LUCIFERASE INFECTION ASSAY - IC50

Row | SMILES | IC90 | IC50 [1] | also measured
1 | COc1ccc(CCn2cnc3c(cnn3-c3ccc(C)cc3)c2=O)cc1 | 0.133 µM | – | IC50 (FFLUC_HILL_SLOPE 2.44, FFLUC_R_SQUARED 0.232, HEPG2TOX_HILL_SLOPE 1.29, HEPG2TOX_R_SQUARED 0.958, PBLUC_HILL_SLOPE 8.61, PBLUC_R_SQUARED 0.878, read-out: LUCIFERASE INFECTION ASSAY - IC50): 0.103 µM
2 | O=S(=O)(NCCNc1ncnc2ccccc12)c1cccc(Cl)c1 | > 10 µM | – | IC50 (HEPG2TOX_HILL_SLOPE 0.939, HEPG2TOX_R_SQUARED 0.791, read-out: LUCIFERASE INFECTION ASSAY - IC50): > 10 µM
3 | Cc1cccc(NC(=O)CN(C)C(=O)/C=C/c2ccccc2)c1C | > 10 µM | > 10 µM | –
4 | Cc1ccc2nc(-c3ccc(NC(=O)COC(=O)c4ccccc4C(=O)c4ccccc4)cc3)sc2c1 | > 10 µM | > 10 µM | –
5 | CS(=O)(=O)Nc1cccc(-c2cn3c(-c4cccc(CO)c4)cnc3cn2)c1 | > 8.37 µM | > 8.37 µM | –
6 | Cc1cc(C(=O)OCc2c(Cl)cccc2Cl)c(C)o1 | > 10 µM | > 10 µM | –
7 | C#CCSc1nnc(-c2ccc(C(C)(C)C)cc2)n1C | 5.91 µM | – | IC50 (PBLUC_HILL_SLOPE 2.86, PBLUC_R_SQUARED 0.337, read-out: LUCIFERASE INFECTION ASSAY - IC50): 2.74 µM
8 | O=C(OCC(=O)C12CC3CC(CC(C3)C1)C2)c1cc2ccccc2cc1O | > 10 µM | > 10 µM | –
9 | Cn1c(-c2cc3c(s2)CCC(C(C)(C)C)C3)n[nH]c1=S (configuration not stated) | 7.62 µM | – | IC50 (HEPG2TOX_HILL_SLOPE 1.61, HEPG2TOX_R_SQUARED 0.989, PBLUC_HILL_SLOPE 2.28, PBLUC_R_SQUARED 0.71, read-out: LUCIFERASE INFECTION ASSAY - IC50): 2.9 µM
10 | O=C(Nc1cc(S(=O)(=O)c2ccccc2)cs1)c1ccc(Cl)cc1 | 5.49 µM | – | IC50 (HEPG2TOX_HILL_SLOPE 7.57, HEPG2TOX_R_SQUARED 0.801, PBLUC_HILL_SLOPE 3.36, PBLUC_R_SQUARED 0.445, read-out: LUCIFERASE INFECTION ASSAY - IC50): 2.85 µM
11 | O=C(Nc1cccc(Cl)c1)C1CCN(c2ccc(C(F)(F)F)cn2)CC1 | > 8.6 µM | – | IC50 (FFLUC_HILL_SLOPE 11.3, FFLUC_R_SQUARED 0.5, read-out: LUCIFERASE INFECTION ASSAY - IC50): > 8.6 µM
12 | CSc1nnc(-c2ccc(C(C)(C)C)cc2)[nH]1 | 10.9 µM | – | IC50 (FFLUC_HILL_SLOPE 15.7, FFLUC_R_SQUARED 0.752, PBLUC_HILL_SLOPE 2.05, PBLUC_R_SQUARED 0.759, read-out: LUCIFERASE INFECTION ASSAY - IC50): 3.73 µM
13 | O=C(Sc1ccc(Cl)cc1Cl)c1cccnc1SCCS(=O)(=O)c1ccc(C(F)(F)F)cn1 | > 5.96 µM | – | IC50 (FFLUC_HILL_SLOPE 1.65, FFLUC_R_SQUARED 0.565, PBLUC_HILL_SLOPE 0.597, PBLUC_R_SQUARED 0.0951, read-out: LUCIFERASE INFECTION ASSAY - IC50): > 5.96 µM
14 | Cc1[nH]c2ccccc2c1-c1nc(Nc2ccc3c(c2)OCCO3)sc1C | > 10 µM | > 10 µM | –
15 | Fc1cccc(-c2nc3ccnc(NCCc4ccccn4)c3[nH]2)c1 | 4.02 µM | – | IC50 (HEPG2TOX_HILL_SLOPE 2.04, HEPG2TOX_R_SQUARED 0.803, PBLUC_HILL_SLOPE 12.8, PBLUC_R_SQUARED 0.152, read-out: LUCIFERASE INFECTION ASSAY - IC50): 3.38 µM
16 | CCN(CC)CCN1COc2c(cc(Cl)c3cccnc23)C1 | 4.94 µM | – | IC50 (HEPG2TOX_HILL_SLOPE 1.86, HEPG2TOX_R_SQUARED 0.951, PBLUC_HILL_SLOPE 8.52, PBLUC_R_SQUARED 0.457, read-out: LUCIFERASE INFECTION ASSAY - IC50): 3.81 µM
17 | O=C1/C(=C/Nc2ccccc2O)c2ccccc2C(=O)N1c1ccccc1Cl | > 10 µM | > 10 µM | –
18 | O=C(Nc1cccc(-n2cnnn2)c1)c1ccc(-c2ccccc2Cl)o1 | > 9.02 µM | – | IC50 (HEPG2TOX_HILL_SLOPE 8.29, HEPG2TOX_R_SQUARED 0.71, PBLUC_HILL_SLOPE 14.4, PBLUC_R_SQUARED 0.296, read-out: LUCIFERASE INFECTION ASSAY - IC50): 8.92 µM
19 | CS(=O)(=O)c1ccc(C(=O)Nc2ccc(S(=O)(=O)NCc3ccco3)cc2)cc1[N+](=O)[O-] | > 10 µM | – | IC50 (HEPG2TOX_HILL_SLOPE 11.7, HEPG2TOX_R_SQUARED 0.595, read-out: LUCIFERASE INFECTION ASSAY - IC50): > 10 µM
20 | Cn1c(NCC2CC2)nc2cnc(-c3cccc(Oc4ccccc4)c3)cc21 | > 10 µM | 5.67 µM | –
21 | C=S(=O)(N/C=C1/C(=O)c2ccccc2N(C)S1(=O)=O)c1ccccc1 (configuration not stated) | > 8.77 µM | > 8.77 µM | –

Row | SMILES | IC90 | IC50 [1] | also measured
22 | CCN(c1ccccc1)S(=O)(=O)c1ccc(Cl)c(NC(=O)Nc2ccc(Cl)cc2C#N)c1 | 7.06 µM | – | IC50 (PBLUC_HILL_SLOPE 5.41, PBLUC_R_SQUARED 0.801, read-out: LUCIFERASE INFECTION ASSAY - IC50): 4.71 µM
23 | CCOC(=O)c1sc(N)c(C#N)c1COC(=O)c1c(CC)noc1C | 0.249 µM | 0.244 µM | –
24 | CNc1nc(-c2[nH]c(C)c(C(=O)OC)c2C)cs1 | 2.11 µM | – | IC50 (FFLUC_HILL_SLOPE 0.348, FFLUC_R_SQUARED 0.146, HEPG2TOX_HILL_SLOPE 0.722, HEPG2TOX_R_SQUARED 0.883, PBLUC_HILL_SLOPE 1.52, PBLUC_R_SQUARED 0.828, read-out: LUCIFERASE INFECTION ASSAY - IC50): 0.496 µM
25 | O=C(NCCC1=CCCCC1)c1ccccc1CN1C(=O)CNC1=O | > 10 µM | > 10 µM | –
26 | CC(C)NC(=O)c1c(NC(=O)c2cccc(C(F)(F)F)c2)nc2ccccn12 | 0.971 µM | – | IC50 (FFLUC_HILL_SLOPE 39.4, FFLUC_R_SQUARED 0.293, HEPG2TOX_HILL_SLOPE 0.926, HEPG2TOX_R_SQUARED 0.794, PBLUC_HILL_SLOPE 4.31, PBLUC_R_SQUARED 0.785, read-out: LUCIFERASE INFECTION ASSAY - IC50): 0.583 µM
27 | Cc1sc2nc3n(c(=O)c2c1C)CC/C3=C/c1cccc2ccccc12 | > 10 µM | – | IC50 (HEPG2TOX_HILL_SLOPE 0.688, HEPG2TOX_R_SQUARED 0.114, PBLUC_HILL_SLOPE 1.25, PBLUC_R_SQUARED 0.514, read-out: LUCIFERASE INFECTION ASSAY - IC50): 3 µM
28 | Cc1ccc2cccc(Oc3ncnc4scc(-c5ccccc5)c34)c2n1 | > 10 µM | – | IC50 (HEPG2TOX_HILL_SLOPE 0.0481, HEPG2TOX_R_SQUARED 0.388, PBLUC_HILL_SLOPE 1.34, PBLUC_R_SQUARED 0.656, read-out: LUCIFERASE INFECTION ASSAY - IC50): 5.34 µM
29 | Cc1cc(Oc2ccc(C(F)(F)F)cc2NS(=O)(=O)c2cc(C(F)(F)F)cc(C(F)(F)F)c2)cc(C)c1Cl | > 5.58 µM | > 5.58 µM | –
30 | CN(NS(=O)(=O)c1ccc(Cl)cc1)c1cnn(C)c(=O)c1Cl | > 9.09 µM | > 9.09 µM | –
31 | COc1cccc(-c2nc3ccnc(NCc4ccccc4)c3[nH]2)c1 | 7.99 µM | – | IC50 (HEPG2TOX_HILL_SLOPE 1.62, HEPG2TOX_R_SQUARED 0.805, PBLUC_HILL_SLOPE 1.55, PBLUC_R_SQUARED 0.567, read-out: LUCIFERASE INFECTION ASSAY - IC50): 1.93 µM
32 | Cc1cc(NC(=O)N2CCN(Cc3ccc(-c4ccccc4Cl)s3)CC2)no1 | > 10 µM | – | IC50 (HEPG2TOX_HILL_SLOPE 17.1, HEPG2TOX_R_SQUARED 0.65, PBLUC_HILL_SLOPE 0.759, PBLUC_R_SQUARED 0.724, read-out: LUCIFERASE INFECTION ASSAY - IC50): 1.19 µM
33 | COCCCn1c(Sc2ncc(Br)cc2[N+](=O)[O-])nnc1-c1ccc(C(C)(C)C)cc1 | > 6.52 µM | – | IC50 (PBLUC_HILL_SLOPE 13.2, PBLUC_R_SQUARED 0.0327, read-out: LUCIFERASE INFECTION ASSAY - IC50): > 6.52 µM
34 | Cc1cccc2nc(CSC(=S)NCc3cccnc3)cn12 | > 10 µM | – | IC50 (HEPG2TOX_HILL_SLOPE 3.71, HEPG2TOX_R_SQUARED 0.958, PBLUC_HILL_SLOPE 13, PBLUC_R_SQUARED 0.345, read-out: LUCIFERASE INFECTION ASSAY - IC50): 9.61 µM
35 | COc1ccc(Cl)c(Nc2nc(-c3c(-c4ccc(Cl)cc4Cl)noc3C)cs2)c1 | > 7.07 µM | – | IC50 (HEPG2TOX_HILL_SLOPE 6.31, HEPG2TOX_R_SQUARED 0.301, PBLUC_HILL_SLOPE 9.51, PBLUC_R_SQUARED 0.295, read-out: LUCIFERASE INFECTION ASSAY - IC50): 6.34 µM
36 | Cc1nc2ncnn2c(N2CCc3ccccc3C2)c1Cl | 6.09 µM | – | IC50 (FFLUC_HILL_SLOPE 16.4, FFLUC_R_SQUARED 0.0433, HEPG2TOX_HILL_SLOPE 1.21, HEPG2TOX_R_SQUARED 0.855, PBLUC_HILL_SLOPE 2.02, PBLUC_R_SQUARED 0.689, read-out: LUCIFERASE INFECTION ASSAY - IC50): 2.05 µM
37 | Cc1ccc(S(=O)(=O)N(Cc2ccccc2Cl)c2ccc(Br)cc2C(=O)c2ccccc2)cc1 | > 5.95 µM | – | IC50 (FFLUC_HILL_SLOPE 4.75, FFLUC_R_SQUARED 0.66, PBLUC_HILL_SLOPE 8.83, PBLUC_R_SQUARED 0.156, read-out: LUCIFERASE INFECTION ASSAY - IC50): 5.41 µM
38 | O=C(CCSc1nc(NC2CC2)c2ccccc2n1)N1CCc2ccccc21 | 7.86 µM | 3.46 µM | –
39 | COc1ccc(-c2cnc3cnc(-c4ccc(C(=O)NC5CC5)cc4)cn23)cc1 | 3.59 µM | – | IC50 (PBLUC_HILL_SLOPE 9.57, PBLUC_R_SQUARED 0.525, read-out: LUCIFERASE INFECTION ASSAY - IC50): 2.85 µM
40 | Cc1onc(-c2ccccc2)c1C(=O)NCC1COCCO1 (configuration not stated) | > 10 µM | > 10 µM | –
41 | C=CCN(C(=O)c1cccc(C)c1[N+](=O)[O-])c1nc2c(s1)CCCC2 | > 10 µM | – | IC50 (PBLUC_HILL_SLOPE 3.27, PBLUC_R_SQUARED 0.266, read-out: LUCIFERASE INFECTION ASSAY - IC50): 9.32 µM
